“And” between values parts separate entries of the source, which are not always exact repeats. Identical values can stand only once.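 Grown in 96-well plates, cells were treated for 48 hours with each compound at five concentrations. Insufficient inhibition: endpoint recorded as highest concentration tested. Here, GI50 denotes the concentration required for 50% inhibition of growth. TGI: concentration producing complete growth inhibition.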

The first experiment deals with UACC-257 melanoma. Description: growth of human tumour cells (NCI), 48 h.
`COc1c(OC)c(OC)c(C(=O)/C=C/c2ccccc2)c(OC)c1OC` registered a TGI of 34.3 µM.

Regarding `CS(=O)(=O)CCCn1c(=O)c(Oc2ccc(F)cc2F)cc2cnc(NC3CCOCC3)nc21`, the GI50 is greater than 25 µM and the TGI was greater than 25 µM.

Take `O=C(CC(O)(C(F)(F)F)C(F)(F)F)c1cc(CC(=O)C(O)(C(F)(F)F)C(F)(F)F)cc(CC(=O)C(O)(C(F)(F)F)C(F)(F)F)c1`: the TGI stood at 4.56 µM.

`Cc1cn2c(/C=C3\C(=O)Nc4ccc(O)cc43)c(-c3ccc(Cl)cc3)nc2s1`: the GI50 is 21.3 µM and the TGI was greater than 100 µM.

As for `O=C(c1c(F)ccc(NS(=O)(=O)N2CC[C@@H](F)C2)c1F)c1c[nH]c2ncc(-c3cnc(C4CC4)nc3)cc12`, the GI50 was 0.00965 µM and < 0.01 µM; the TGI is 0.174 µM and 0.0739 µM.

`O=C(c1ccc(Cl)cc1)c1cnc(Nc2ccccc2Cl)s1` displayed a TGI of 47.2 µM.

On to `Nc1nc(N)c(N=Nc2ccc([As](=O)(O)O)cc2)c(=O)[nH]1`, for which the TGI is greater than 100 µM.

Consider `C=CC(=O)N1CCC(C2CCNc3c(C(N)=O)c(-c4ccc(Oc5ccccc5)cc4)nn32)CC1` (stereo not given), for which the GI50 is 20.3 µM and the TGI was determined as 51.2 µM.

As to `CCCCCCNC(=O)c1nc(-c2ccccc2)oc1Cc1ccc(OP(=O)(O)O)cc1`, the GI50 is 17.6 µM and the TGI worked out at 35.6 µM.

The next experiment relates to LOX IMVI melanoma. Description: growth of human tumour cells (NCI), 48 h.
With `COc1ccc(-c2oc(=O)ccc2-c2cc(OC)c(OC)c(OC)c2)cc1F`, the GI50 is 10.9 µM and the TGI is greater than 100 µM.

In the case of `O=C(c1ccc(F)c(F)c1Nc1ccc(I)cc1F)N1CC(O)([C@@H]2CCCCN2)C1`, the GI50 is 0.0321 µM and 0.0191 µM; the TGI is 2.15 µM and 1.7 µM.

As to `Oc1cc(O)c2c(c1)OC(c1ccc(O)c(O)c1)C(OC1(c3cc(O)c(O)c(O)c3)Oc3cc(O)cc(O)c3C(O)C1O)C2` (stereo not given), the TGI amounted to 38.4 µM.

In the case of `CCOc1ccc2nc(S/C(=C/C=C(C#N)C#N)c3ccc(C)cc3)sc2c1`, the GI50 was 9.87 µM and the TGI is 23.9 µM.

As for `COc1cc(CNCCCN2C(=O)c3ccc4c5c(ccc(c35)C2=O)C(=O)N(CCCNCc2cc(OC)c(OC)c(OC)c2)C4=O)cc(OC)c1OC`, the GI50 was 0.14 µM and the TGI is 0.525 µM.

Turning to `Cc1nc2cnc(N)c(C#Cc3cncc(C(=O)Nc4ccc(CN5CCN(C)CC5)c(C(F)(F)F)c4)c3)c2nc1C`, the GI50 is 0.101 µM and the TGI came to 1.05 µM.

Take `O=C1NC(=S)NNC12c1ccccc1-c1ccccc12`: the TGI was greater than 10 µM.

For the molecule `Cc1csc(Nc2nc(-c3cccc(Br)c3)nc(C(Cl)(Cl)Cl)n2)n1`, the GI50 is greater than 100 µM and the TGI was greater than 100 µM.

The molecule `COc1c(OC)c(OC)c(C(=O)/C=C/c2ccccc2)c(OC)c1OC` registered a TGI of 36.7 µM.

With `CS(=O)(=O)CCCn1c(=O)c(Oc2ccc(F)cc2F)cc2cnc(NC3CCOCC3)nc21`, the GI50 was greater than 25 µM and the TGI was greater than 25 µM.

Molecule `O=C(CC(O)(C(F)(F)F)C(F)(F)F)c1cc(CC(=O)C(O)(C(F)(F)F)C(F)(F)F)cc(CC(=O)C(O)(C(F)(F)F)C(F)(F)F)c1` came in with a TGI of 2.81 µM.

Turning to `Cc1cn2c(/C=C3\C(=O)Nc4ccc(O)cc43)c(-c3ccc(Cl)cc3)nc2s1`, the GI50 was 21.3 µM and the TGI was greater than 100 µM.

Regarding `O=C(c1c(F)ccc(NS(=O)(=O)N2CC[C@@H](F)C2)c1F)c1c[nH]c2ncc(-c3cnc(C4CC4)nc3)cc12`, the GI50 was 0.305 µM and 0.342 µM; the TGI was > 10 µM and 17.2 µM.

Molecule `O=C(c1ccc(Cl)cc1)c1cnc(Nc2ccccc2Cl)s1` registered a TGI greater than 100 µM.

`Nc1nc(N)c(N=Nc2ccc([As](=O)(O)O)cc2)c(=O)[nH]1` showed a TGI greater than 100 µM.

Turning to `C=CC(=O)N1CCC(C2CCNc3c(C(N)=O)c(-c4ccc(Oc5ccccc5)cc4)nn32)CC1` (stereo not given), the GI50 is 13.3 µM and the TGI worked out at 29.4 µM.

For `CCCCCCNC(=O)c1nc(-c2ccccc2)oc1Cc1ccc(OP(=O)(O)O)cc1`, the GI50 is 16.4 µM and the TGI came out at 30.2 µM.

For the next experiment, the system named is BT-549 breast. Nature of the experiment: growth of human tumour cells (NCI), 48 h.
For `COc1ccc(-c2oc(=O)ccc2-c2cc(OC)c(OC)c(OC)c2)cc1F`, the GI50 is 19.7 µM and the TGI worked out at 88.4 µM.

For the molecule `O=C(c1ccc(F)c(F)c1Nc1ccc(I)cc1F)N1CC(O)([C@@H]2CCCCN2)C1`, the GI50 was 7.52 µM and > 6.99 µM; the TGI was 22 µM and > 10 µM.

Molecule `Oc1cc(O)c2c(c1)OC(c1ccc(O)c(O)c1)C(OC1(c3cc(O)c(O)c(O)c3)Oc3cc(O)cc(O)c3C(O)C1O)C2` (stereo not given) yielded a TGI greater than 83.6 µM.

Take `CCOc1ccc2nc(S/C(=C/C=C(C#N)C#N)c3ccc(C)cc3)sc2c1`: the GI50 is 25.6 µM and the TGI amounted to 70.1 µM.

On to `COc1cc(CNCCCN2C(=O)c3ccc4c5c(ccc(c35)C2=O)C(=O)N(CCCNCc2cc(OC)c(OC)c(OC)c2)C4=O)cc(OC)c1OC`, for which the GI50 was 0.852 µM and the TGI was 1.77 µM.

`Cc1nc2cnc(N)c(C#Cc3cncc(C(=O)Nc4ccc(CN5CCN(C)CC5)c(C(F)(F)F)c4)c3)c2nc1C`: the GI50 is 2 µM and the TGI was determined as 11.8 µM.

`O=C1NC(=S)NNC12c1ccccc1-c1ccccc12`: the TGI was greater than 10 µM.

As to `Cc1csc(Nc2nc(-c3cccc(Br)c3)nc(C(Cl)(Cl)Cl)n2)n1`, the GI50 is greater than 100 µM and the TGI is greater than 100 µM.

`COc1c(OC)c(OC)c(C(=O)/C=C/c2ccccc2)c(OC)c1OC`: the TGI was found to be 18.1 µM.

Turning to `CS(=O)(=O)CCCn1c(=O)c(Oc2ccc(F)cc2F)cc2cnc(NC3CCOCC3)nc21`, the GI50 is greater than 25 µM and the TGI was greater than 25 µM.

`O=C(CC(O)(C(F)(F)F)C(F)(F)F)c1cc(CC(=O)C(O)(C(F)(F)F)C(F)(F)F)cc(CC(=O)C(O)(C(F)(F)F)C(F)(F)F)c1` registered a TGI of 4.93 µM.

For `Cc1cn2c(/C=C3\C(=O)Nc4ccc(O)cc43)c(-c3ccc(Cl)cc3)nc2s1`, the GI50 is 17.3 µM and the TGI was found to be 41.5 µM.

Take `O=C(c1c(F)ccc(NS(=O)(=O)N2CC[C@@H](F)C2)c1F)c1c[nH]c2ncc(-c3cnc(C4CC4)nc3)cc12`: the GI50 is > 8.75 µM and 6.83 µM; the TGI was > 10 µM and 38.1 µM.

The molecule `O=C(c1ccc(Cl)cc1)c1cnc(Nc2ccccc2Cl)s1` showed a TGI of 51.2 µM.

Turning to `Nc1nc(N)c(N=Nc2ccc([As](=O)(O)O)cc2)c(=O)[nH]1`, the TGI is greater than 100 µM.

For the molecule `C=CC(=O)N1CCC(C2CCNc3c(C(N)=O)c(-c4ccc(Oc5ccccc5)cc4)nn32)CC1` (stereo not given), the GI50 was 12.9 µM and the TGI worked out at 52.4 µM.

Turning to `CCCCCCNC(=O)c1nc(-c2ccccc2)oc1Cc1ccc(OP(=O)(O)O)cc1`, the GI50 is 16.8 µM and the TGI was 32.7 µM.

These data come from PubChem BioAssay (NCI).
